Results published in patent US11439618B2, “Compositions and methods for lowering triglycerides” (Amarin Pharmaceuticals Ireland Limited, priority 2009, dated 2022).

Experiments:
[1] = previous data; standard deviation of 15%; cited from earlier work
[2] = system: subjects with Age-Associated Memory Impairment; test: Safety and tolerability (adverse events), 6-week AAMI study; assay type: in vivo, human
Procedure: All randomized subjects that received at least 1 dose of study medication were included in the Safety Population.
Safety evaluations were based on the safety population. Safety and tolerability were assessed in terms of AEs, vital signs, 12-lead ECG, clinical laboratory data, medical history, and study drug compliance. Safety and tolerability data were presented by treatment group.

CC/C=C\C/C=C\C/C=C\C/C=C\C/C=C\CCCC(=O)OCC [Ethyl-EPA, all-cis eicosa-5,8,11,14,17-pentaenoic acid ethyl ester]
Difference in percent change from baseline in fasting LDL-C between study drug and placebo [1]: 2.2%
Nausea Probably Related to the study drug ([2]; 1 g): One
Nausea Possibly Related to the study drug ([2]; 1 g cohort): two
Nausea Possibly Related to the study drug ([2]; 2 g cohort): one
SAE reported ([2]; 2 g treatment group): One
Subjects discontinued due to TEAEs ([2]; 2 g treatment group): 2 subjects
Serious adverse event (worsening epigastric chest pain), relation to study drug ([2]; 2 g, one subject, 17 days after start, 9 days after last dose): unrelated to the study drug
Nausea Possibly Related to the study drug ([2]; 4 g cohort): two
Diarrhea, relation to the study drug ([2]; 4 g, one subject): diarrhea that was Probably Related to the study drug
Treatment emergent AEs (TEAEs) reported ([2]; ethyl-EPA treatment groups (1, 2, 4 g), placebo groups 34 events): 105 events
Deaths during the study ([2]; whole study): no deaths
Severity and relatedness of most TEAEs ([2]; whole study): mild in severity and unrelated to study drug
TEAEs Definitely Related to the study drug ([2]; whole study): No TEAEs were Definitely Related
